ChEMBL document CHEMBL3044860, “13-Deoxyitol A, a new insecticidal isoryanodane diterpene from the seeds of Itoa orientalis” (2009)

Assays:
Format in all cases: functional
[1] = test system: Plutella xylostella; assay: Contact toxicity against third-instar larval stage of Plutella xylostella (diamondback moth) applied topically measured per insect
[2] = test system: Nilaparvata lugens; assay: Contact toxicity against macropterous female Nilaparvata lugens (brown planthopper) applied topically measured per insect
[3] = test system: Spodoptera litura; assay: Contact toxicity against third-instar larval stage of Spodoptera litura applied topically measured per insect
[4] = test system: Sogatella furcifera; assay: Contact toxicity against macropterous female Sogatella furcifera applied topically measured per insect
[5] = test system: Plutella xylostella; assay: Antifeedant activity against third-instar larval stage of Plutella xylostella (diamondback moth) in cabbage mustard leaves
[6] = test system: Nilaparvata lugens; assay: Antifeedant activity against fourth-instar nymph stage of Nilaparvata lugens (brown planthopper) in tillering to booting period rice seedlings
[7] = test system: Sogatella furcifera; assay: Antifeedant activity against fourth-instar nymph stage of Sogatella furcifera in tillering to booting period rice seedlings
[8] = test system: Spodoptera litura; assay: Antifeedant activity against third-instar larval stage of Spodoptera litura in cabbage mustard leaves

Structure (SMILES)	LD50 [1] [µg]	LD50 [2] [µg]	LD50 [3] [µg]	LD50 [4] [µg]	AFC50 [5] [µg/mL]	AFC50 [6] [µg/mL]	AFC50 [7] [µg/mL]	AFC50 [8] [µg/mL]
CC(C)[C@@H]1[C@H](O)[C@H]2C(C)(CO)[C@@]3(O)CC[C@@H](C)[C@H]3[C@H]3OC[C@]1(C)[C@]32O (stereo not given in full) [13-DEOXYITOL A]	0.22	>2	0.22	>2	29.3	38.9	23.5	50.1
CC(C)[C@@]1(O)[C@H](O)[C@@H]2[C@@]3(O)[C@@H]4O[C@@](O)(C[C@@]2(C)[C@@]2(O)CC[C@@H](C)[C@@H]42)[C@]31C [ITOL A]	0.22	>2	0.22	>2	22.5	34.8	29.3	47.5
C/C=C(\C)C(=O)O[C@H]1C[C@@H](OC(C)=O)[C@@]2(C(=O)OC)CO[C@H]3[C@@H](O)[C@@](C)([C@]45O[C@@]4(C)[C@@H]4C[C@H]5O[C@@H]5OC=C[C@@]54O)[C@H]4[C@]1(CO[C@]4(O)C(=O)OC)[C@@H]32 [AZADIRACHTIN A]					9.3	7.5	7	9.8
